Measured values reported in US7208176B2, “Drug delivery device containing neuraminidase inhibitor and an H1 antagonist” (Osmotica Corp., priority 2001, dated 2007).

Key:
[1] = cited from earlier work
in vivo = details: po
[2] = cited from earlier work; remark: listed apart in the source

SMILES	absorption and conversion after oral administration ([1]; oral, G. He et al.)	Tmax (in vivo) [h]	half-life (in vivo) [h]	steady-state plasma trough concentrations versus minimum inhibitory concentration ([1]; 75 mg twice daily)	metabolite clearance in renal impairment ([1]; human, in vivo)	absolute bioavailability of the active metabolite ([1]; in vivo, po)	time to maximal concentrations ([1]; in vivo, po) [h]	time until detectable in plasma ([1]; in vivo, po) [min]	accumulation ([1]; in vivo)	apparent half-life ([1]; in vivo) [h]	exposure at steady state, higher in elderly compared with young individuals ([1]; in vivo)	time to steady-state plasma concentrations ([1]; in vivo) [days]	median serum half-life ([2]; Cass et al.)	dose systemically absorbed (median) ([2]; in vivo) [%]	excreted unchanged in the urine ([2]; in vivo)	time to maximum serum concentrations ([2]; in vivo) [h]	tolerability ([2]; in vivo)
CCOC(=O)C1=C[C@@H](OC(CC)CC)[C@H](NC(C)=O)[C@@H](N)C1 [Oseltamivir, reference compound]	readily absorbed from the gastrointestinal tract and extensively converted to the active metabolite	3	5 to 7														
CCC(CC)O[C@@H]1C=C(C(=O)O)C[C@H](N)[C@H]1NC(C)=O [Active metabolite of oseltamivir, oseltamivir carboxylate]		8	14	remain above the minimum inhibitory concentration for all influenza strains tested	decreases linearly with creatinine clearance	about 80%	3 to 4	≤ 30	less than 2 fold	6 to 10	approximately 25%	≤ 3					
CC(=O)N[C@H]1[C@H]([C@H](O)[C@H](O)CO)OC(C(=O)O)=C[C@@H]1N=C(N)N [zanamivir, 4-guanidino-2,4-dideoxy-2,3-dehydro-N-acetylneuraminic acid]													2.5 and 5.05 hours	10 to 20	approximately 90%	1 to 2	well tolerated at all doses
